Here are results for four compounds from US5212185A, “Piperidinyl-terminated alkylamino ethynyl alanine amino diol compounds for treatment of hypertension” (G. D. Searle & Co., priority 1992, dated 1993).

SMILES strings stand for the structures. Square brackets hold non-standard residues; d marks the D form. Peptide text beside a SMILES is read from it. * marks the point of attachment. Sta = CC(C)C[C@H](N)[C@@H](O)CC(=O)O; Isovaleryl = CC(C)CC(=O)*

Experiment [1] has as its target T1, human renin (Homo sapiens, UniProt P00797).
T1 construct: purchased National Institute for Biological Standards, London
T1 sequence (P00797 67-406): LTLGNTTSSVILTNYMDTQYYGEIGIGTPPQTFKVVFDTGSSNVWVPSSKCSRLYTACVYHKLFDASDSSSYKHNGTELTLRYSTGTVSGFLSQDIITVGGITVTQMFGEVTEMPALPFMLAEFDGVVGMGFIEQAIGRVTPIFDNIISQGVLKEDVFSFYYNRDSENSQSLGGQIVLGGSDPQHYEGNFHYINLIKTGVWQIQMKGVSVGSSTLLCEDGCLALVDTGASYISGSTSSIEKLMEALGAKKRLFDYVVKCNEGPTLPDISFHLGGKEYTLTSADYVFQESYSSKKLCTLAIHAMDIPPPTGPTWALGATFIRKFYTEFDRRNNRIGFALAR
The experiment in a line: Human Renin Inhibition in vitro (angiotensin I generation by radioimmunoassay). In kind it is biochemical. Conditions: pH 7.4, 37° C., two hours, human plasma. On the procedure:
Compounds of Formula I were evaluated as inhibitors of human renin in an in vitro assay, as follows: This human renin inhibition test has been previously described in detail [Papaioannou et al., Clinical and Experimental Hypertension, A7(9), 1243-1257 (1985)]. Human renin was obtained from the National Institute for Biological Standards, London. An incubation mixture was prepared containing the following components: in a total volume of 0.25 mL: 100 mM Tris-acetate buffer at pH 7.4, 25×10^-6 Goldblatt units of renin, 0.05 mL of plasma from human volunteers taking oral contraceptives, 6.0 mM Na-EDTA, 2.4 mM phenylmethyl sulfonyl fluoride, 1.5 mM 8-hydroxyquinoline, 0.4 mg/mL bovine serum albumin (BSA), and 0.024 mg/mL neomycin sulfate. This mixture was incubated for two hours at 37° C. in the presence or absence of renin inhibitors. The produced angiotensin I was determined by radioimmunoassay (New England Nuclear kit). Test compounds to be assayed were dissolved in DMSO and diluted with 100mM Tris-acetate buffer at pH 7.4 containing 0.5% BSA to the appropriate concentration. The final concentration of organic solvent in the reaction mixture was less than 1%. Control incubations at 37° C. were used to correct for effects of organic solvent on renin activity.

Experiment [2] concerns pepsin. Conditions: cited from earlier work.
For experiment [3], the system named is cathepsin D. The settings on record: cited from earlier work.
In experiment [4] the test system is renin. The settings on record: cited from earlier work.
Experiment [5] concerns acid proteases. Conditions: cited from earlier work.
The subject of experiment [6] is hog renin. The settings on record: after the injection of hog renin into nephrectomized rats; cited from earlier work.

By IC50 is commonly meant the midpoint of a concentration-inhibition curve. The compound `C#CC[C@H](NC(=O)[C@@H](CC(=O)N(C)CCN1CCCCC1)Cc1ccccc1)C(=O)N[C@@H](CC1CCCCC1)[C@@H](O)[C@@H](O)CC(C)C` [Example 1] displayed an IC50 in experiment [1] of 830 pM.
As to `C#CC[C@H](NC(=O)[C@@H](CC(=O)N(C)CCN1Cc2ccccc2C1)Cc1ccccc1)C(=O)N[C@@H](CC1CCCCC1)[C@@H](O)[C@@H](O)CC(C)C` [Example 2], half-maximal inhibition in experiment [1] (IC50) required 560 pM.
As for `C#CC[C@H](NC(=O)[C@@H](CC(=O)N(C)CCN1CC2CCC(CC2)C1)Cc1ccccc1)C(=O)N[C@@H](CC1CCCCC1)[C@@H](O)[C@@H](O)CC(C)C` [Example 3], in experiment [1], it took 1200 pM to reach half-maximal inhibition (IC50).
`CC(C)CC(=O)N[C@H](C(=O)N[C@H](C(=O)N[C@@H](CC(C)C)[C@@H](O)CC(=O)N[C@@H](C)C(=O)N[C@@H](CC(C)C)[C@@H](O)CC(=O)O)C(C)C)C(C)C` [pepstatin] (Isovaleryl-VV[Sta]A[Sta]-OH): the inhibition of pepsin result in experiment [2] is given as “inhibitor of aspartyl proteases such as pepsin”. Besides, the “inhibition of cathepsin D” value in experiment [3] was “inhibitor of aspartyl proteases such as pepsin, cathepsin D”. For the same compound, the inhibition of renin entry in experiment [4] was “inhibitor of aspartyl proteases such as pepsin, cathepsin D and renin”. Besides, the “inhibiting acid proteases in addition to renin” value in experiment [5] is “inhibiting acid proteases in addition to renin”. Further, in experiment [6], the “reduce blood pressure in vivo” value is on record as “found to reduce blood pressure in vivo”.
